Assay results from publication PMC4701504, “Immunogenicity of HLA Class I and II Double Restricted Influenza A-Derived Peptides” (PLoS ONE, 2016).
Like-named read-outs stand apart in the source and are kept apart here. Where a SMILES comes first, the peptide text is derived from it.

Assays:
HLA-A*02:01 = HLA-A*02:01 (Homo sapiens, UniProt P04439, D140Y/D185E/D98H/E176V/E277Q/G131W/G231S/I119V/I121R/I166T/I218V/L300P/L318F/N151K/N90K/P208A/P217A/Q86G/Q94H/R138H/R169H/T345S); assay: biochemical; format: binding
[1] = target: recombinant HLA-DRA*01:01/DRB1*01:01 molecules (Homo sapiens, UniProt P01903+P01911, A100R/D57E/F55L/F60I/F76Y/I96L/L162R/M171V/P40L/Q125E/R42F/V115G/Y59C); assay: biochemical; format: binding
[2] = test system: CD8 and CD4 T cells of HLA-A*02:01/HLA-DRB1*01:01 transgenic mice; format: in vivo; design: key: I, CD8 response; II, CD4 response; -,no response; settings: CAF09 + 20 nmol peptide i.p. three times at two week intervals; IFNγ ELISpot one week after last immunization (Fig 1)
[3] = […], peptide concentration at half-saturation as approximation of KD, read-out: HLA-A*02:01 Measured
[4] = read-out: HLA-DRB1*01:01 Measured

For `CC[C@H](C)[C@H](NC(=O)[C@@H]1CCCN1C(=O)[C@H](CCCNC(=N)N)NC(=O)[C@@H](NC(=O)[C@H](CCCCN)NC(=O)[C@H](CC(C)C)NC(=O)[C@H](Cc1c[nH]c2ccccc12)NC(=O)[C@H](CCC(=O)O)NC(=O)[C@H](CCSC)NC(=O)[C@H](CC(C)C)NC(=O)[C@@H](N)C(C)C)[C@@H](C)O)C(=O)O` [M(41–51)] (H-VLMEWLKTRPI-OH), the Kd (HLA-A*02:01; [3]) was 101 nM and the Kd [1, 4] was 119 nM.
`CSCC[C@H](NC(=O)[C@@H](N)CCCNC(=N)N)C(=O)NCC(=O)N[C@@H](C)C(=O)N[C@H](C(=O)N[C@H](C(=O)N[C@H](C(=O)N[C@@H](CCC(=O)O)C(=O)N[C@H](C(=O)O)C(C)C)[C@@H](C)O)[C@@H](C)O)C(C)C` [M(134–142)] (H-RMGAVTTEV-OH) showed a Kd (HLA-A*02:01) of 133 nM and a Kd [1, 4] greater than 5000 nM.
Work on `CC[C@H](C)[C@H](NC(=O)[C@H](CC(C)C)NC(=O)[C@H](C)NC(=O)[C@H](CO)NC(=O)[C@H](CCCNC(=N)N)NC(=O)[C@H](C)NC(=O)[C@H](CC(C)C)NC(=O)[C@@H](N)Cc1ccccc1)C(=O)N[C@@H](CC(C)C)C(=O)O` [NP(258–266)] (H-FLARSALIL-OH) yielded a Kd (HLA-A*02:01) of 0.9 nM and a Kd [1, 4] of 97 nM.
`CC[C@H](C)[C@H](NC(=O)CNC(=O)[C@@H](NC(=O)[C@H](CC(C)C)NC(=O)[C@@H](N)CO)C(C)C)C(=O)N[C@@H](CC(=O)O)C(=O)N1CCC[C@H]1C(=O)N[C@@H](Cc1ccccc1)C(=O)N[C@@H](CCCNC(=N)N)C(=O)N[C@@H](CC(C)C)C(=O)O` [NP(297–306)] (H-SLVGIDPFRL-OH) showed a Kd (HLA-A*02:01; [3]) of 70 nM and a Kd [1] of 460 nM.
In the case of `CC[C@H](C)[C@H](N)C(=O)N[C@H](C(=O)N[C@@H](CC(C)C)C(=O)N[C@@H](CCCCN)C(=O)N[C@@H](C)C(=O)N[C@@H](CC(N)=O)C(=O)N[C@@H](Cc1ccccc1)C(=O)N[C@@H](CO)C(=O)N[C@H](C(=O)O)C(C)C)[C@@H](C)CC` [NS1(128–136)] (H-IILKANFSV-OH), the Kd (HLA-A*02:01; [3]) is reported as 45 nM and the Kd [1, 4] is reported as greater than 5000 nM.
`CSCC[C@H](NC(=O)[C@@H](N)Cc1ccccc1)C(=O)N[C@@H](CCC(N)=O)C(=O)N[C@@H](C)C(=O)N[C@@H](CC(C)C)C(=O)N[C@@H](Cc1c[nH]cn1)C(=O)N[C@@H](CC(C)C)C(=O)N[C@@H](CC(C)C)C(=O)N[C@@H](CC(C)C)C(=O)O` [NS2(99–107)] (H-FMQALHLLL-OH) showed a Kd (HLA-A*02:01; [3]) of 13 nM and a Kd [1, 4] greater than 5000 nM.
Compound `CC[C@H](C)[C@H](NC(=O)[C@H](CO)NC(=O)[C@H](CC(C)C)NC(=O)[C@H](CCCCN)NC(=O)[C@H](CC(C)C)NC(=O)[C@H](C)NC(=O)[C@H](CC(=O)O)NC(=O)[C@H](CCSC)NC(=O)[C@H](CC(C)C)NC(=O)[C@H](CC(C)C)NC(=O)[C@@H](N)Cc1ccccc1)C(=O)O` [PA(282–292)] (H-FLLMDALKLSI-OH) has a Kd (HLA-A*02:01; [3]) of 24 nM and a Kd [1, 4] of 23 nM.
`CSCC[C@H](NC(=O)[C@H](CO)NC(=O)[C@H](CCC(=O)O)NC(=O)[C@H](CCSC)NC(=O)[C@@H](NC(=O)[C@H](CC(=O)O)NC(=O)[C@H](CCCCN)NC(=O)[C@H](CC(C)C)NC(=O)[C@@H](N)Cc1ccccc1)C(C)C)C(=O)O` [PB1(166–174)] (H-FLKDVMESM-OH) was tested, and the Kd (HLA-A*02:01; [3]) was 51 nM and the Kd [1] was greater than 5000 nM.
`CC[C@H](C)[C@H](NC(=O)[C@H](CC(C)C)NC(=O)[C@@H](N)Cc1ccc(O)cc1)C(=O)N[C@@H](CCCNC(=N)N)C(=O)N[C@@H](C)C(=O)N[C@@H](CC(C)C)C(=O)N[C@H](C(=O)N[C@@H](CC(C)C)C(=O)N[C@@H](CC(N)=O)C(=O)N[C@H](C(=O)N[C@@H](CCSC)C(=O)O)[C@@H](C)O)[C@@H](C)O` [PB1(217–227)] (H-YLIRALTLNTM-OH) gave a Kd (HLA-A*02:01; [3]) of 46 nM and a Kd [1, 4] of 76 nM.
Compound `CC[C@H](C)[C@H](NC(=O)[C@H](CCSC)NC(=O)[C@H](C)NC(=O)[C@H](CC(C)C)NC(=O)[C@@H](N)Cc1ccccc1)C(=O)N[C@H](C(=O)N[C@@H](Cc1ccc(O)cc1)C(=O)N[C@@H](CCSC)C(=O)N[C@H](C(=O)O)[C@@H](C)O)[C@@H](C)O` [PB1(318–326)] (H-FLAMITYMT-OH) has a Kd (HLA-A*02:01; [3]) of 253 nM and a Kd [1, 4] of 557 nM.
`CSCC[C@H](NC(=O)CNC(=O)[C@H](CCSC)NC(=O)[C@H](CCSC)NC(=O)[C@@H](N)CCSC)C(=O)N[C@@H](Cc1ccccc1)C(=O)N[C@@H](CC(N)=O)C(=O)N[C@@H](CCSC)C(=O)N[C@@H](CC(C)C)C(=O)N[C@@H](CO)C(=O)N[C@H](C(=O)O)[C@@H](C)O` [PB1(407–417)] (H-MMMGMFNMLST-OH) gave a Kd (HLA-A*02:01; [3]) of 36 nM and a Kd [1, 4] of 315 nM.
Work on `CSCC[C@H](NC(=O)CNC(=O)[C@H](CCSC)NC(=O)[C@@H](N)CCSC)C(=O)N[C@@H](Cc1ccccc1)C(=O)N[C@@H](CC(N)=O)C(=O)N[C@@H](CCSC)C(=O)N[C@@H](CC(C)C)C(=O)N[C@@H](CO)C(=O)N[C@H](C(=O)N[C@H](C(=O)O)C(C)C)[C@@H](C)O` [PB1(408–418)] (H-MMGMFNMLSTV-OH) yielded a Kd (HLA-A*02:01; [3]) of 51 nM and a Kd [1, 4] of 172 nM.
`CSCC[C@H](NC(=O)CN)C(=O)N[C@@H](Cc1ccccc1)C(=O)N[C@@H](CC(N)=O)C(=O)N[C@@H](CCSC)C(=O)N[C@@H](CC(C)C)C(=O)N[C@@H](CO)C(=O)N[C@H](C(=O)N[C@H](C(=O)O)C(C)C)[C@@H](C)O` [PB1(410–418)] (H-GMFNMLSTV-OH) gave a Kd (HLA-A*02:01; [3]) of 23 nM and a Kd [1, 4] of 34 nM.
Compound `CSCC[C@H](NC(=O)CN)C(=O)N[C@@H](Cc1ccccc1)C(=O)N[C@@H](CC(N)=O)C(=O)N[C@@H](CCSC)C(=O)N[C@@H](CC(C)C)C(=O)N[C@@H](CO)C(=O)N[C@H](C(=O)N[C@H](C(=O)N[C@@H](CC(C)C)C(=O)O)C(C)C)[C@@H](C)O` [PB1(410–419)] (H-GMFNMLSTVL-OH) has a Kd (HLA-A*02:01; [3]) of 384 nM and a Kd [1, 4] of 29 nM.
Compound `CSCC[C@H](NC(=O)[C@@H](N)CC(N)=O)C(=O)N[C@@H](CC(C)C)C(=O)N[C@@H](CO)C(=O)N[C@H](C(=O)N[C@H](C(=O)N[C@@H](CC(C)C)C(=O)NCC(=O)N[C@H](C(=O)O)C(C)C)C(C)C)[C@@H](C)O` [PB1(413–421)] (H-NMLSTVLGV-OH) has a Kd (HLA-A*02:01; [3]) of 16 nM and a Kd [1, 4] greater than 5000 nM.
`CC[C@H](C)[C@H](NC(=O)[C@@H]1CCCN1C(=O)[C@H](Cc1ccc(O)cc1)NC(=O)[C@H](CCCCN)NC(=O)[C@H](CCSC)NC(=O)[C@H](C)NC(=O)[C@H](CCSC)NC(=O)[C@H](CCSC)NC(=O)[C@@H](N)Cc1c[nH]c2ccccc12)C(=O)O` [PB2(49–57)] (H-WMMAMKYPI-OH) gave a Kd (HLA-A*02:01; [3]) of 36 nM and a Kd [1, 4] greater than 5000 nM.
`CC[C@H](C)[C@H](NC(=O)[C@@H]1CCCN1C(=O)[C@H](Cc1ccc(O)cc1)NC(=O)[C@H](CCCCN)NC(=O)[C@H](CCSC)NC(=O)[C@H](C)NC(=O)[C@H](CCSC)NC(=O)[C@H](CCSC)NC(=O)[C@@H](N)Cc1c[nH]c2ccccc12)C(=O)N[C@H](C(=O)N[C@@H](C)C(=O)O)[C@@H](C)O` [PB2(49–59)] (H-WMMAMKYPITA-OH) showed a Kd (HLA-A*02:01; [3]) of 75 nM and a Kd [1, 4] of 528 nM.
`CC(C)C[C@H](NC(=O)[C@H](CCCCN)NC(=O)[C@H](CC(C)C)NC(=O)[C@@H](NC(=O)[C@H](CC(N)=O)NC(=O)[C@H](CCC(N)=O)NC(=O)[C@H](CCCCN)NC(=O)[C@@H](NC(=O)[C@H](Cc1ccc(O)cc1)NC(=O)[C@H](CCCCN)NC(=O)[C@@H](N)Cc1ccc(O)cc1)C(C)C)[C@@H](C)O)C(=O)N[C@@H](C)C(=O)N[C@H](C(=O)N[C@@H](Cc1c[nH]cn1)C(=O)N[C@@H](Cc1c[nH]cn1)C(=O)N[C@@H](Cc1c[nH]cn1)C(=O)N[C@@H](Cc1c[nH]cn1)C(=O)N[C@@H](Cc1c[nH]cn1)C(=O)N[C@@H](Cc1c[nH]cn1)C(=O)O)[C@@H](C)O` [Reference peptide, reference compound] (H-YKYVKQNTLKLATHHHHHH-OH) was tested, and the Kd [1] was 8 nM.
With LLQNSQVYS [NP(306–315)] the “Response: type of immune response, CD4 (second symbol)” value [2] was “-” and the Kd ([1]; pH 7, read-out: HLA-DRB1*01:01 Measured) was greater than 5000 nM.
